Data on three compounds can be found in patent US7790896B2, “RNA-selective probes for live cell imaging of nuclear structure and function” (New York University, priority 2006, dated 2010).

Data set [1] can be described thus: Fluorescent properties of free dye solution. In kind it is physicochemical. Conditions: for EM (emission λmax), Buffer / EX (excitation λmax), Buffer: TE buffer pH 7.5, dye 5 μM; for ε free (extinction coefficient) / ΦF free (quantum yield): TE buffer pH 7.5, dye 5 μM for E36, 10 μM for E144 and F22; for ΦF free (quantum yield): Rhodamine 6G standard. As to the method: (§1) The fluorescence spectra data in the primary screening and selected dyes titration assay study was obtained by Gemini XS plate reader. RNA solution was prepared right before the assay experiments to avoid possible degradation and contamination. In the primary screening, 1 mg/mL RNA (type VI from torula yeast) buffer solution was used. Point scans were carried out first using five Ex/Em point sets ([…], 400/500, 450/550, 500/600, 550/650 nm). Spectra scans were then carried out for the selected dyes. Excitation wavelengths were set at 350 nm, 400 nm, 450 nm, 500 nm, and 550 nm and the emission wavelengths were scanned. RNA (16S- and 23S-ribosomal from E. coli) and DNA (salmon testes) titration experiments and quantum yield/extinction coefficient determination for the three best dyes were carried out by the plate reader as well. Excitation λmax obtained from F-2500 Hitachi Fluorophotometer was used. Absorbance wavelength was determined by SpectraMax Plus^384 absorbance plate reader. […] was chosen as standard and 480 nm was used as excitation wavelength in the scanning for quantum yield determination. […] Generally, the λmax (nm) of emission was determined by scanning a fixed excitation first, and the μmax (nm) of excitation was determined by scanning emission spectrum with a fixed μem (nm). The detailed fluorescent properties of three selected dyes including; excitation/emission μmax, the quantum yield and extinction coefficient of both free dye solution and dye-RNA solution were assessed (Table 5).

For data set [2], the system named is RNA, 16S- and 23S-ribosomal from E. coli. Nature of the data set: Dye concentration dependency titration with RNA. It counts as binding. Conditions: dye 0.15 μM to 10 μM, RNA 50 μg/mL. The protocol: Samples containing 50 μg/mL RNA in TE buffer with an increasing concentration of compound from 0.15 μM to 10 μM. Shown here is the intensity increase recorded at the emission λmax wavelength of each dye. […] The samples contain fixed concentration of dyes (E36: 5 μM; E144: 10 μM; F22: 10 μM) in TE buffer with an increasing concentration of RNA or DNA from 0.19 μg/mL to 200 μg/mL. Data points were in duplicated in individual experiments, and error bars represent standard deviation.
The fluorescence spectra data in the primary screening and selected dyes titration assay study was obtained by Gemini XS plate reader. RNA solution was prepared right before the assay experiments to avoid possible degradation and contamination. In the primary screening, 1 mg/mL RNA (type VI from torula yeast) buffer solution was used. Point scans were carried out first using five Ex/Em point sets ([…], 400/500, 450/550, 500/600, 550/650 nm). Spectra scans were then carried out for the selected dyes. Excitation wavelengths were set at 350 nm, 400 nm, 450 nm, 500 nm, and 550 nm and the emission wavelengths were scanned. RNA (16S- and 23S-ribosomal from E. coli) and DNA (salmon testes) titration experiments and quantum yield/extinction coefficient determination for the three best dyes were carried out by the plate reader as well. Excitation λmax obtained from F-2500 Hitachi Fluorophotometer was used. Absorbance wavelength was determined by SpectraMax Plus^384 absorbance plate reader. […] was chosen as standard and 480 nm was used as excitation wavelength in the scanning for quantum yield determination.
The RNA binding characteristics of these dyes was further examined by determining if the fluorescent intensity was concentration dependent (FIG. 3A). […] Moreover, a slight emission Ma red shift was observed (total 8 nm) with the increasing concentration of E36.

Data set [3] has as its system RNA (16S- and 23S-ribosomal from E. coli). Nature of the data set: Fluorescent properties of dye-RNA solution. It counts as binding. Conditions: for EM (emission λmax), RNA / EX (excitation λmax), RNA: TE buffer pH 7.5, dye 5 μM; for EM (emission λmax), RNA / EX (excitation λmax), RNA / ΦF RNA (quantum yield) / ε RNA (extinction coefficient): RNA 200 μg/mL; for ΦF RNA (quantum yield) / ε RNA (extinction coefficient): TE buffer pH 7.5, dye 5 μM for E36, 10 μM for E144 and F22; for ΦF RNA/ΦF free: ratio of quantum yields with RNA 200 μg/mL and free. The protocol: as §1

The subject of a further data set is 3T3 cells. Nature of the data set: Cytotoxicity test, MTS assay. In kind it is cell-based. As to the method:
Dye DMSO stock solutions were diluted by fresh medium into four desired concentrations ([…], 13.5 μM, 10 μM and 5 μM). Cells were cultured in 96-well plate for 12 hours before experiments. The cell medium was then exchanged with different concentrations of dye medium solutions. Cells were incubated at 37° C. in 5% CO2 for 5, 15, or 24 hours before viability by MTS assay was measured. As for the MTS assay, briefly, 3-(4,5-dimethylthiazol-2-yl)-5-(3-carboxymethoxyphenyl)-2-(4-sulfophenyl)-2H-tetrazolium (MTS) and phenazine methosulfate (PMS) were mixed at a ratio of 20:1 right before the experiments. The cell dye medium solution was exchanged with 80 μL of fresh medium followed by the addition of 20 μL MTS/PMS solution to each well. 100 μM hydrogen peroxide was used as positive control. The cell plates were then incubated at 37° C. in 5% CO2 for 2 hours. Absorbance was measured at 490 nm. The absorbance measured for an untreated cell population under the same experimental conditions was used as the reference point to establish 100% cell viability. Duplicated experiments have been tested.
(20 μM, 13.5 μM, 10 μM, and 5 μM) in A549 and 3T3 cells and the cytotoxicity was measured using standard MTS assay after 5, 15, or 24 hours incubation (FIG. 5A). Generally, there was no toxicity (defined by greater than 50% cell death) associated with any of the dyes at the working concentration (5 μM) after 24 hours incubation. In A549 cell, all three dyes were non-toxic after 24 hours incubation at all concentrations. In 3T3 cells, E144 was non-toxic, but 20 μM of E36 was toxic after 24 hours incubation and 20 μM F22 was toxic after 15 hours incubation. Since the compounds bind to RNA, it is not surprising to see some signs of toxicity at higher concentrations, especially after one doubling period (approximately 22 hours for A549 cells and 20-25 hours for 3T3 cells). […] Additional studies are required to determine if the compounds perturb nucleolar dynamics throughout the cells cycle.
In general terms: Tetrazolium assays rely on reduction of a dye to a coloured formazan, in cell work by metabolically active cells.

As for `COc1cc(OC)c(/C=C/c2ccc3ccccc3[n+]2C)c(OC)c1` [Dye E144], in data set [1], the “EM (emission λmax), Buffer” value worked out at 532 nm; the “EX (excitation λmax), Buffer” value stood at 440 nm; the “ε free (extinction coefficient)” value came to 13200 M⁻¹ cm⁻¹; the “ΦF free (quantum yield)” value stood at 0.0056. Also, in data set [2], the “Emission λmax red shift with increasing dye concentration” value is given as “did not show obvious wavelength shift” and the “Fluorescent intensity vs dye concentration (titration curve)” value was “almost linear curve”. For the same compound, in data set [3], the “EM (emission λmax), RNA” value is given as 532 nm; the “EX (excitation λmax), RNA” value stood at 456 nm; the “ΦF RNA (quantum yield)” value stood at 0.0310; the “ε RNA (extinction coefficient)” value came to 14600 M⁻¹ cm⁻¹. For the same compound, the “ΦF RNA/ΦF free” value in data set [3] stood at 5.5. In addition, in the data set with 3T3 cells (20, 13.5, 10 and 5 μM, 5, 15 or 24 hours), the “Cytotoxicity (toxic = greater than 50% cell death)” value was “non-toxic”.

Take `COc1ccc2c(ccc(/C=C/c3ccc(N(C)C)cc3)[n+]2C)c1` [Dye F22]: in data set [1], the “EM (emission λmax), Buffer” value amounted to 598 nm; the “EX (excitation λmax), Buffer” value turned out to be 492 nm; the “ε free (extinction coefficient)” value was determined as 17400 M⁻¹ cm⁻¹; the “ΦF free (quantum yield)” value came out at 0.0007. Moreover, in data set [2], the “Emission λmax red shift with increasing dye concentration” value is given as “did not show obvious wavelength shift” and the “Fluorescent intensity vs dye concentration (titration curve)” value is listed as “evidence of saturation at high concentration”. Besides, in data set [3], the “EM (emission λmax), RNA” value is given as 620 nm; the “EX (excitation λmax), RNA” value is 548 nm; the “ΦF RNA (quantum yield)” value came out at 0.0075; the “ε RNA (extinction coefficient)” value was determined as 20000 M⁻¹ cm⁻¹. Besides, the “ΦF RNA/ΦF free” value in data set [3] was found to be 10.7. In addition, the “Cytotoxicity (toxic = greater than 50% cell death)” value with 3T3 cells (20 μM, 15 hours incubation) is “toxic”.

For the compound `C[n+]1c(/C=C/c2c[nH]c3ccccc23)ccc2ccccc21` [Dye E36], in data set [1], the “EM (emission λmax), Buffer” value turned out to be 541 nm; the “EX (excitation λmax), Buffer” value came out at 457 nm; the “ε free (extinction coefficient)” value is 39400 M⁻¹ cm⁻¹; the “ΦF free (quantum yield)” value was 0.0019. In data set [2], the “Emission λmax red shift with increasing dye concentration” value is 8 nm and the “Fluorescent intensity vs dye concentration (titration curve)” value is reported as “evidence of saturation at high concentration”. Besides, in data set [3], the “EM (emission λmax), RNA” value is recorded as 548 nm; the “EX (excitation λmax), RNA” value is reported as 497 nm; the “ΦF RNA (quantum yield)” value is listed as 0.1041; the “ε RNA (extinction coefficient)” value came out at 43100 M⁻¹ cm⁻¹. Besides, the “ΦF RNA/ΦF free” value in data set [3] was 54.6. For the same compound, the “Cytotoxicity (toxic = greater than 50% cell death)” value in the data set on 3T3 cells (20 μM, 24 hours incubation) is given as “toxic”.
